According to patent US20240067632A1, “WEE1 Degrading Compounds and Uses Thereof” (Bristol-Myers Squibb Company, priority 2022, published 2024):

How the values were obtained:
WEE1 = molecular target: T1, WEE1 (Homo sapiens, UniProt P30291+Q96SW2); test: WEE1-ePL degradation assay (LentiX-WEE1-ePL-GSPT1-ND cells, InCELL Hunter luminescence, 4 h); assay type: cell-based; settings: 293T-LentiX WEE1-ePL cells; for 293T-LentiX WEE1-ePL Degradation 4 hr (Ymin): lower limit of the fit (0 = luciferase inhibitor, Ymax = DMSO control); for DC50: read-out: 293T-LentiX WEE1-ePL Degradation 4 hr (EC50)
T1 construct: C-terminal ePL-tagged (DiscoverX, Fremont, CA) full-length WEE1 expression construct; expressed in transfected cells; host or cells: LentiX-HEK293T (Invitrogen), lentiviral transduction; co-expressing GSPT1-GN (G576N, lacking the first 158 amino acids)
How it was run: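 Degradation EC50 was fitted by a four-parameter logistic model, with the upper limit taken from DMSO wells. Luminescence was read with InCELL Hunter reagent after 30 min at room temperature, following a 4 h, 37° C exposure of 2500 cells/well. Cells were LentiX-HEK293T carrying ePL-tagged full-length WEE1, dosed in 10 points (3-fold) from 1 or 10 uM.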

MKN45 cells = test: MKN45 cell proliferation assay (Cell-Titer-Glo, 120 h); assay type: cell-based; settings: for EC50: Homo sapiens, MKN-45, 120 h, Cell-Titer-Glo, growth inhibition, read-out: MKN45 Cell Prolif. 120 hr (EC50); for MKN45 Cell Prolif. 120 hr (Ymin-Obs): minimal percent of DMSO control observed in the concentrations tested
How it was run: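 Cells seeded at 400/well onto pre-printed 10-point half-log dilutions (top 1 or 10 uM, 0.1% DMSO final), in triplicate, and grown 120 h at 37 C. Viability by Cell-Titer-Glo luminescence, blank-subtracted and normalised to DMSO; EC50 from four-parameter logistic fit, with observed minimal % of control recorded as Ymin-obs.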

| 293T-LentiX WEE1-ePL Degradation 4 hr (Ymin) (WEE1) | DC50 (WEE1) | EC50 (MKN45 cells) | SMILES | MKN45 Cell Prolif. 120 hr (Ymin-Obs) (MKN45 cells) |
| --- | --- | --- | --- | --- |
| 41 | 3.31 nM | 8.03 nM | CC1(C)COCC[C@H]1c1ccc2cc(CN3CC[C@H](Oc4ccc5c(c4)CN(C4CCC(=O)NC4=O)C5=O)C3)ccc2n1 (stereo partly drawn) [3-(5-{[(3S)-1-({2-[(4R)-3,3-dimethyloxan-4-yl]quinolin-6-yl}methyl)pyrrolidin-3-yl]oxy}-1-oxo-2,3-dihydro-1H-isoindol-2-yl)piperidine-2,6-dione] | 11.03 |
| 34.39 | 14.6 nM | 13.3 nM | O=C1CCC(N2Cc3cc(O[C@H]4CCN(Cc5ccc6nc(N7CC[C@@]78CCOC8)ncc6c5)C4)ccc3C2=O)C(=O)N1 (stereo partly drawn) [3-(5-{[(3S)-1-({2-[(4S)-6-oxa-1-azaspiro[3.4]octan-1-yl]quinazolin-6-yl}methyl)pyrrolidin-3-yl]oxy}-1-oxo-2,3-dihydro-1H-isoindol-2-yl)piperidine-2,6-dione] | 12.16 |
| 40 | 6.07 nM | 6.53 nM | O=C1CCC(N2Cc3cc(O[C@H]4CCN(Cc5ccc6nc(N7CC[C@@]78CCOC8)ccc6c5)C4)ccc3C2=O)C(=O)N1 (stereo partly drawn) [3-(5-{[(3S)-1-({2-[(4S)-6-oxa-1-azaspiro[3.4]octan-1-yl]quinolin-6-yl}methyl)pyrrolidin-3-yl]oxy}-1-oxo-2,3-dihydro-1H-isoindol-2-yl)piperidine-2,6-dione] | 7.225 |
| 46 | 6.81 nM | 10.9 nM | O=C1CCC(N2Cc3cc(O[C@H]4CCN(Cc5ccc6nc(N7CCC[C@]78CCOC8)ccc6c5)C4)ccc3C2=O)C(=O)N1 (stereo partly drawn) [3-(5-{[(3S)-1-({2-[(5R)-7-oxa-1-azaspiro[4.4]nonan-1-yl]quinolin-6-yl}methyl)pyrrolidin-3-yl]oxy}-1-oxo-2,3-dihydro-1H-isoindol-2-yl)piperidine-2,6-dione] | 17.85 |
| 34.08 | 12.6 nM | 9.38 nM | O=C1CCC(N2Cc3cc(O[C@H]4CCN(Cc5ccc6nc(N7CCC[C@@]78CCOC8)ncc6c5)C4)ccc3C2=O)C(=O)N1 (stereo partly drawn) [3-(5-{[(3S)-1-({2-[(5S)-7-oxa-1-azaspiro[4.4]nonan-1-yl]quinazolin-6-yl}methyl)pyrrolidin-3-yl]oxy}-1-oxo-2,3-dihydro-1H-isoindol-2-yl)piperidine-2,6-dione] | 9.64 |
| 47 | 3.66 nM | 10.1 nM | O=C1CCC(N2Cc3cc(O[C@H]4CCN(Cc5ccc6nc(N7CCC[C@@]78CCOC8)ccc6c5)C4)ccc3C2=O)C(=O)N1 (stereo partly drawn) [3-(5-{[(3S)-1-({2-[(5S)-7-oxa-1-azaspiro[4.4]nonan-1-yl]quinolin-6-yl}methyl)pyrrolidin-3-yl]oxy}-1-oxo-2,3-dihydro-1H-isoindol-2-yl)piperidine-2,6-dione] | 26.44 |
| 37 | 10.6 nM | 4.27 nM | O=C1CCC(N2Cc3cc(O[C@H]4CCN(Cc5ccc6nc(NC7CCOCC7)ccc6c5)C4)ccc3C2=O)C(=O)N1 (stereo partly drawn) [3-(5-{[(3S)-1-({2-[(oxan-4-yl)amino]quinolin-6-yl}methyl)pyrrolidin-3-yl]oxy}-1-oxo-2,3-dihydro-1H-isoindol-2-yl)piperidine-2,6-dione] | 7.78 |
| 33 | 4.73 nM | 2.19 nM | O=C1CCC(N2Cc3cc(O[C@H]4CCN(Cc5ccc6nc(COC7CCOCC7)ccc6c5)C4)ccc3C2=O)C(=O)N1 (stereo partly drawn) [3-(5-{[(3S)-1-({2-[(oxan-4-yloxy)methyl]quinolin-6-yl}methyl)pyrrolidin-3-yl]oxy}-1-oxo-2,3-dihydro-1H-isoindol-2-yl)piperidine-2,6-dione] | 7.295 |

More lines, now with the values behind:

| SMILES | 293T-LentiX WEE1-ePL Degradation 4 hr (Ymin) (WEE1) | DC50 (WEE1) | EC50 (MKN45 cells) | MKN45 Cell Prolif. 120 hr (Ymin-Obs) (MKN45 cells) |
| --- | --- | --- | --- | --- |
| O=C1CCC(N2Cc3cc(O[C@H]4CCN(Cc5ccc6nc(N7C[C@H]8COC[C@H]8C7)ccc6c5)C4)ccc3C2=O)C(=O)N1 (stereo partly drawn) [3-(5-{[(3S)-1-({2-[(3aR,6aS)-hexahydro-1H-furo[3,4-c]pyrrol-5-yl]quinolin-6-yl}methyl)pyrrolidin-3-yl]oxy}-1-oxo-2,3-dihydro-1H-isoindol-2-yl)piperidine-2,6-dione] | 39 | 3.61 nM | 6.4 nM | 14.73 |
| CC1(C)C[C@H](c2ncc3cc(CN4CC[C@H](Oc5ccc6c(c5)CN(C5CCC(=O)NC5=O)C6=O)C4)ccc3n2)CCO1 (stereo partly drawn) [3-(5-{[(3S)-1-({2-[(4R)-2,2-dimethyloxan-4-yl]quinazolin-6-yl}methyl)pyrrolidin-3-yl]oxy}-1-oxo-2,3-dihydro-1H-isoindol-2-yl)piperidine-2,6-dione] | 27 | 65 nM | 19.7 nM | 9.866 |
| O=C1CCC(N2Cc3cc(O[C@H]4CCN(Cc5ccc6nc(N7CC[C@]78CCOC8)ncc6c5)C4)ccc3C2=O)C(=O)N1 (stereo partly drawn) [3-(5-{[(3S)-1-({2-[(4R)-6-oxa-1-azaspiro[3.4]octan-1-yl]quinazolin-6-yl}methyl)pyrrolidin-3-yl]oxy}-1-oxo-2,3-dihydro-1H-isoindol-2-yl)piperidine-2,6-dione] | 35.43 | 19.5 nM | 16.7 nM | 13.42 |
| O=C1CCC(N2Cc3cc(O[C@H]4CCN(Cc5ccc6nc(N7CC[C@]78CCOC8)ccc6c5)C4)ccc3C2=O)C(=O)N1 (stereo partly drawn) [3-(5-{[(3S)-1-({2-[(4R)-6-oxa-1-azaspiro[3.4]octan-1-yl]quinolin-6-yl}methyl)pyrrolidin-3-yl]oxy}-1-oxo-2,3-dihydro-1H-isoindol-2-yl)piperidine-2,6-dione] | 42 | 5.38 nM | 5.4 nM | 7.715 |
| CC1(C)C[C@@H](c2ncc3cc(CN4CC[C@H](Oc5ccc6c(c5)CN(C5CCC(=O)NC5=O)C6=O)C4)ccc3n2)CCO1 (stereo partly drawn) [3-(5-{[(3S)-1-({2-[(4S)-2,2-dimethyloxan-4-yl]quinazolin-6-yl}methyl)pyrrolidin-3-yl]oxy}-1-oxo-2,3-dihydro-1H-isoindol-2-yl)piperidine-2,6-dione] | 31 | 43.4 nM | 9.52 nM | 8.354 |
| CC1(C)COCC[C@@H]1c1ccc2cc(CN3CC[C@H](Oc4ccc5c(c4)CN(C4CCC(=O)NC4=O)C5=O)C3)ccc2n1 (stereo partly drawn) [3-(5-{[(3S)-1-({2-[(4S)-3,3-dimethyloxan-4-yl]quinolin-6-yl}methyl)pyrrolidin-3-yl]oxy}-1-oxo-2,3-dihydro-1H-isoindol-2-yl)piperidine-2,6-dione] | 34 | 1.78 nM | 1.7 nM | 6.945 |
| O=C1CCC(N2Cc3cc(O[C@H]4CCN(Cc5ccc6nc(N7CCC[C@]78CCOC8)ncc6c5)C4)ccc3C2=O)C(=O)N1 (stereo partly drawn) [3-(5-{[(3S)-1-({2-[(5R)-7-oxa-1-azaspiro[4.4]nonan-1-yl]quinazolin-6-yl}methyl)pyrrolidin-3-yl]oxy}-1-oxo-2,3-dihydro-1H-isoindol-2-yl)piperidine-2,6-dione] | 32.5 | 12.3 nM | 6.61 nM | 6.57 |
